# Measured values reported in US20080140450A1, “Treatment of metabolic syndrome with norfluoxetine” (AMPLA Pharmaceuticals Inc., priority 2006, published 2008).
# Key:
# [1] = test system: monoamine uptake, especially serotonin; conditions: qualitative, known from U.S. Pat. No. 4,313,896; cited from earlier work
# CB1 receptor = CB1 receptor (Homo sapiens, UniProt P21554); experiment: functional activity versus the CB1 receptor; conditions: qualitative statement, no method or numbers given
# Excerpt: Without wishing to be restricted by the proposal, this cannabinoid activity may mediate the utility of these compounds for the treatment of metabolic syndrome or the disorders associated with metabolic syndrome.
# Chain of CB1 receptor (P21554 whole entry): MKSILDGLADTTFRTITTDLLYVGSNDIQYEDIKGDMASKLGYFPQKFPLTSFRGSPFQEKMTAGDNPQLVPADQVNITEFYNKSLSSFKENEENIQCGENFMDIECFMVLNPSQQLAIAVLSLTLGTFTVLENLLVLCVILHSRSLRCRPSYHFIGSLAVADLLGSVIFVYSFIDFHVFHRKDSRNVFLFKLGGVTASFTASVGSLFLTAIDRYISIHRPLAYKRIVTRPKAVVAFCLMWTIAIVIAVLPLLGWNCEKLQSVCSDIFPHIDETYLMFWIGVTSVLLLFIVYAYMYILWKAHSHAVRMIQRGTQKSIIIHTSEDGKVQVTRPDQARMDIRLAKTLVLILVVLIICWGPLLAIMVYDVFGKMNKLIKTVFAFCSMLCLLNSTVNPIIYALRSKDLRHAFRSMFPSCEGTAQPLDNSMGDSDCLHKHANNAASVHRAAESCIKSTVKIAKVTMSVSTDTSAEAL
SMILES,block of monoamine uptake [1],functional activity versus the CB1 receptor (mode of action) (CB1 receptor)
"NCCC(Oc1ccc(C(F)(F)F)cc1)c1ccccc1 (racemic) [Norfluoxetine, 3-(4-trifluoromethylphenoxy)-3-phenylpropylamine]","block monoamine uptake, especially serotonin",antagonist of CB1
CNCC[C@@H](Oc1ccc(C(F)(F)F)cc1)c1ccccc1 [(R)-fluoxetine],,antagonist of CB1
CNCC[C@H](Oc1ccc(C(F)(F)F)cc1)c1ccccc1 [(S)-Fluoxetine],,inverse agonist of CB1
